Legend:
Type in all cases: in vivo
[1] = tested on: Amaranthus retoflexus (AMARE); test: Post-emergence Test (glasshouse, percentage damage to the plant); conditions: post-emergence spray, 1000 g/ha unless otherwise stated, evaluated after 13 days
Method in brief: (§1)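 Seeds sown in standard soil in a glasshouse (24/16 °C day/night, 14 h light, 65% humidity), then sprayed with an aqueous solution of the compound formulated in acetone/water 50:50 with 0.5% Tween 20 at 1000 g/ha unless otherwise stated. Percentage damage was scored after 13 days on a five-point scale (5=81-100%; 1=0-20%).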

[2] = tested on: Echinochloa crus-galli (ECHCG); test: as above; conditions: post-emergence spray, 1000 g/ha unless otherwise stated, evaluated after 13 days
Method in brief: as §1

[3] = tested on: Ipomoea hederacea (IPOHE); test: as above; conditions: post-emergence spray, 1000 g/ha unless otherwise stated, evaluated after 13 days
Method in brief: (§2)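 Sown pots; spray 1000 g/ha (unless stated) in acetone/water 50:50 + 0.5% Tween 20; glasshouse 24/16 °C, 14 h light, 65% RH; watered twice daily; % damage read at 13 days, scored 1–5.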

Lolium perenne (LOLPE) [4] = test: as above; conditions: post-emergence spray, 1000 g/ha unless otherwise stated, evaluated after 13 days
Method in brief: as §1

Setaria faberi (SETFA) [5] = test: as above; conditions: post-emergence spray, 1000 g/ha unless otherwise stated, evaluated after 13 days
Method in brief: as §2

Solanum nigrum (SOLNI) [6] = test: as above; conditions: post-emergence spray, 1000 g/ha unless otherwise stated, evaluated after 13 days
Method in brief: as §1

[7] = tested on: Amaranthus retoflexus (AMARE); test: Pre-emergence Test (glasshouse, percentage damage to the plant); conditions: 1000 g/ha unless otherwise stated, five-point scale
Solanum nigrum (SOLNI) [8] = test: as above; conditions: 1000 g/ha unless otherwise stated, five-point scale
Setaria faberi (SETFA) [9] = test: as above; conditions: 1000 g/ha unless otherwise stated, five-point scale
Lolium perenne (LOLPE) [10] = test: as above; conditions: 1000 g/ha unless otherwise stated, five-point scale
[11] = tested on: Echinochloa crus-galli (ECHCG); test: as above; conditions: 1000 g/ha unless otherwise stated, five-point scale
[12] = tested on: Ipomoea hederacea (IPOHE); test: as above; conditions: 1000 g/ha unless otherwise stated, five-point scale

CCn1c(C)c(-c2ccc(Cl)cc2Cl)c(=O)c(C(=O)O)c1-c1ccc(Cl)c(Cl)c1 [Compound 15, 5-(2,4-dichlorophenyl)-2-(3,4-dichlorophenyl)-1-ethyl-6-methyl-4-oxo-pyridine-3-carboxylic acid]
Post-emergence Test AMARE, percentage damage to the plant (five-point scale) [1]: 5 (5=81-100%) | Post-emergence Test ECHCG, percentage damage to the plant (five-point scale) [2]: 4 (4=61-80%) | Post-emergence Test IPOHE, percentage damage to the plant (five-point scale) [3]: 2 (2=21-40%) | Post-emergence Test LOLPE, percentage damage to the plant (five-point scale) (Lolium perenne (LOLPE) [4]): 1 (1=0-20%) | Post-emergence Test SETFA, percentage damage to the plant (five-point scale) (Setaria faberi (SETFA) [5]): 5 (5=81-100%) | Post-emergence Test SOLNI, percentage damage to the plant (five-point scale) (Solanum nigrum (SOLNI) [6]): 4 (4=61-80%) | percentage damage to the plant, AMARE [7]: 5 (5=81-100%) | percentage damage to the plant, SOLNI (Solanum nigrum (SOLNI) [8]): 3 (3=41-60%) | percentage damage to the plant, SETFA (Setaria faberi (SETFA) [9]): 5 (5=81-100%) | percentage damage to the plant, LOLPE (Lolium perenne (LOLPE) [10]): 1 (1=0-20%) | percentage damage to the plant, ECHCG [11]: 1 (1=0-20%) | percentage damage to the plant, IPOHE [12]: 1 (1=0-20%)

CCn1c(C)c(-c2csc(Cl)c2)c(=O)c(C(=O)O)c1-c1ccc(Cl)c(Cl)c1 [Compound 37, 5-(5-chloro-3-thienyl)-2-(3,4-dichlorophenyl)-1-ethyl-6-methyl-4-oxo-pyridine-3-carboxylic acid]
Post-emergence Test AMARE, percentage damage to the plant (five-point scale) [1]: 1 (1=0-20%) | Post-emergence Test ECHCG, percentage damage to the plant (five-point scale) [2]: 1 (1=0-20%) | Post-emergence Test IPOHE, percentage damage to the plant (five-point scale) [3]: 3 (3=41-60%) | Post-emergence Test LOLPE, percentage damage to the plant (five-point scale) (Lolium perenne (LOLPE) [4]): 1 (1=0-20%) | Post-emergence Test SETFA, percentage damage to the plant (five-point scale) (Setaria faberi (SETFA) [5]): 1 (1=0-20%) | Post-emergence Test SOLNI, percentage damage to the plant (five-point scale) (Solanum nigrum (SOLNI) [6]): 4 (4=61-80%) | percentage damage to the plant, AMARE [7]: 1 (1=0-20%) | percentage damage to the plant, SOLNI (Solanum nigrum (SOLNI) [8]): 1 (1=0-20%) | percentage damage to the plant, SETFA (Setaria faberi (SETFA) [9]): 1 (1=0-20%) | percentage damage to the plant, LOLPE (Lolium perenne (LOLPE) [10]): 1 (1=0-20%) | percentage damage to the plant, ECHCG [11]: 1 (1=0-20%) | percentage damage to the plant, IPOHE [12]: 1 (1=0-20%)

CCn1c(C)c(-c2ccc(Cl)c(F)c2)c(=O)c(C(=O)O)c1-c1ccc(Cl)c(Cl)c1 [Compound 9, 5-(4-chloro-3-fluoro-phenyl)-2-(3,4-dichlorophenyl)-1-ethyl-6-methyl-4-oxo-pyridine-3-carboxylic acid]
Post-emergence Test AMARE, percentage damage to the plant (five-point scale) [1]: 5 (5=81-100%) | Post-emergence Test ECHCG, percentage damage to the plant (five-point scale) [2]: 5 (5=81-100%) | Post-emergence Test IPOHE, percentage damage to the plant (five-point scale) [3]: 3 (3=41-60%) | Post-emergence Test LOLPE, percentage damage to the plant (five-point scale) (Lolium perenne (LOLPE) [4]): 1 (1=0-20%) | Post-emergence Test SETFA, percentage damage to the plant (five-point scale) (Setaria faberi (SETFA) [5]): 5 (5=81-100%) | Post-emergence Test SOLNI, percentage damage to the plant (five-point scale) (Solanum nigrum (SOLNI) [6]): 3 (3=41-60%) | percentage damage to the plant, AMARE [7]: 5 (5=81-100%) | percentage damage to the plant, SOLNI (Solanum nigrum (SOLNI) [8]): 3 (3=41-60%) | percentage damage to the plant, SETFA (Setaria faberi (SETFA) [9]): 4 (4=61-80%) | percentage damage to the plant, LOLPE (Lolium perenne (LOLPE) [10]): 1 (1=0-20%) | percentage damage to the plant, ECHCG [11]: 5 (5=81-100%) | percentage damage to the plant, IPOHE [12]: 1 (1=0-20%)

CCn1c(C)c(-c2cnn(C)c2)c(=O)c(C(=O)O)c1-c1ccc(Cl)c(Cl)c1 [Compound 1, 2-(3,4-dichlorophenyl)-1-ethyl-6-methyl-5-(1-methylpyrazol-4-yl)-4-oxo-pyridine-3-carboxylic acid]
Post-emergence Test AMARE, percentage damage to the plant (five-point scale) [1]: 5 (5=81-100%) | Post-emergence Test ECHCG, percentage damage to the plant (five-point scale) [2]: 5 (5=81-100%) | Post-emergence Test IPOHE, percentage damage to the plant (five-point scale) [3]: 4 (4=61-80%) | Post-emergence Test LOLPE, percentage damage to the plant (five-point scale) (Lolium perenne (LOLPE) [4]): 3 (3=41-60%) | Post-emergence Test SETFA, percentage damage to the plant (five-point scale) (Setaria faberi (SETFA) [5]): 5 (5=81-100%) | Post-emergence Test SOLNI, percentage damage to the plant (five-point scale) (Solanum nigrum (SOLNI) [6]): 5 (5=81-100%) | percentage damage to the plant, AMARE [7]: 1 (1=0-20%) | percentage damage to the plant, SOLNI (Solanum nigrum (SOLNI) [8]): 5 (5=81-100%) | percentage damage to the plant, SETFA (Setaria faberi (SETFA) [9]): 5 (5=81-100%) | percentage damage to the plant, LOLPE (Lolium perenne (LOLPE) [10]): 4 (4=61-80%) | percentage damage to the plant, ECHCG [11]: 5 (5=81-100%) | percentage damage to the plant, IPOHE [12]: 4 (4=61-80%)

CCn1c(C)c(-c2ccccn2)c(=O)c(C(=O)O)c1-c1ccc(Cl)c(Cl)c1.Cl [Compound 28, 2-(3,4-dichlorophenyl)-1-ethyl-6-methyl-4-oxo-5-pyridin-1-ium-2-yl-pyridine-3-carboxylic acid;chloride]
Post-emergence Test AMARE, percentage damage to the plant (five-point scale) [1]: 2 (2=21-40%) | Post-emergence Test ECHCG, percentage damage to the plant (five-point scale) [2]: 2 (2=21-40%) | Post-emergence Test IPOHE, percentage damage to the plant (five-point scale) [3]: 4 (4=61-80%) | Post-emergence Test LOLPE, percentage damage to the plant (five-point scale) (Lolium perenne (LOLPE) [4]): 2 (2=21-40%) | Post-emergence Test SETFA, percentage damage to the plant (five-point scale) (Setaria faberi (SETFA) [5]): 3 (3=41-60%) | Post-emergence Test SOLNI, percentage damage to the plant (five-point scale) (Solanum nigrum (SOLNI) [6]): 3 (3=41-60%) | percentage damage to the plant, AMARE [7]: 1 (1=0-20%) | percentage damage to the plant, SOLNI (Solanum nigrum (SOLNI) [8]): 2 (2=21-40%) | percentage damage to the plant, SETFA (Setaria faberi (SETFA) [9]): 1 (1=0-20%) | percentage damage to the plant, LOLPE (Lolium perenne (LOLPE) [10]): 1 (1=0-20%) | percentage damage to the plant, ECHCG [11]: 1 (1=0-20%) | percentage damage to the plant, IPOHE [12]: 3 (3=41-60%)

CCn1c(C)c(-c2ccccc2Cl)c(=O)c(C(=O)O)c1-c1ccc(Cl)c(Cl)c1 [Compound 13, 5-(2-chlorophenyl)-2-(3,4-dichlorophenyl)-1-ethyl-6-methyl-4-oxo-pyridine-3-carboxylic acid]
Post-emergence Test AMARE, percentage damage to the plant (five-point scale) [1]: 4 (4=61-80%) | Post-emergence Test ECHCG, percentage damage to the plant (five-point scale) [2]: 4 (4=61-80%) | Post-emergence Test IPOHE, percentage damage to the plant (five-point scale) [3]: 4 (4=61-80%) | Post-emergence Test LOLPE, percentage damage to the plant (five-point scale) (Lolium perenne (LOLPE) [4]): 4 (4=61-80%) | Post-emergence Test SETFA, percentage damage to the plant (five-point scale) (Setaria faberi (SETFA) [5]): 4 (4=61-80%) | Post-emergence Test SOLNI, percentage damage to the plant (five-point scale) (Solanum nigrum (SOLNI) [6]): 3 (3=41-60%) | percentage damage to the plant, AMARE [7]: 4 (4=61-80%) | percentage damage to the plant, SOLNI (Solanum nigrum (SOLNI) [8]): 4 (4=61-80%) | percentage damage to the plant, SETFA (Setaria faberi (SETFA) [9]): 5 (5=81-100%) | percentage damage to the plant, LOLPE (Lolium perenne (LOLPE) [10]): 2 (2=21-40%) | percentage damage to the plant, ECHCG [11]: 5 (5=81-100%) | percentage damage to the plant, IPOHE [12]: 4 (4=61-80%)

CCn1c(C)c(-c2ccc(OC)nc2)c(=O)c(C(=O)O)c1-c1ccc(Cl)c(Cl)c1 [Compound 126, 2-(3,4-dichlorophenyl)-1-ethyl-5-(6-methoxy-3-pyridyl)-6-methyl-4-oxo-pyridine-3-carboxylic acid]
Post-emergence Test AMARE, percentage damage to the plant (five-point scale) [1]: 5 (5=81-100%) | Post-emergence Test ECHCG, percentage damage to the plant (five-point scale) [2]: 4 (4=61-80%) | Post-emergence Test IPOHE, percentage damage to the plant (five-point scale) [3]: 4 (4=61-80%) | Post-emergence Test LOLPE, percentage damage to the plant (five-point scale) (Lolium perenne (LOLPE) [4]): 2 (2=21-40%) | Post-emergence Test SETFA, percentage damage to the plant (five-point scale) (Setaria faberi (SETFA) [5]): 5 (5=81-100%) | Post-emergence Test SOLNI, percentage damage to the plant (five-point scale) (Solanum nigrum (SOLNI) [6]): 5 (5=81-100%) | percentage damage to the plant, AMARE [7]: 5 (5=81-100%) | percentage damage to the plant, SOLNI (Solanum nigrum (SOLNI) [8]): 4 (4=61-80%) | percentage damage to the plant, SETFA (Setaria faberi (SETFA) [9]): 4 (4=61-80%) | percentage damage to the plant, LOLPE (Lolium perenne (LOLPE) [10]): 0 | percentage damage to the plant, ECHCG [11]: 2 (2=21-40%) | percentage damage to the plant, IPOHE [12]: 3 (3=41-60%)

CCn1c(C)c(-c2ccnc(F)c2)c(=O)c(C(=O)O)c1-c1ccc(Cl)c(Cl)c1 [Compound 17, 2-(3,4-dichlorophenyl)-1-ethyl-5-(2-fluoro-4-pyridyl)-6-methyl-4-oxo-pyridine-3-carboxylic acid]
Post-emergence Test AMARE, percentage damage to the plant (five-point scale) [1]: 4 (4=61-80%) | Post-emergence Test ECHCG, percentage damage to the plant (five-point scale) [2]: 4 (4=61-80%) | Post-emergence Test IPOHE, percentage damage to the plant (five-point scale) [3]: 4 (4=61-80%) | Post-emergence Test LOLPE, percentage damage to the plant (five-point scale) (Lolium perenne (LOLPE) [4]): 4 (4=61-80%) | Post-emergence Test SETFA, percentage damage to the plant (five-point scale) (Setaria faberi (SETFA) [5]): 4 (4=61-80%) | Post-emergence Test SOLNI, percentage damage to the plant (five-point scale) (Solanum nigrum (SOLNI) [6]): 3 (3=41-60%) | percentage damage to the plant, AMARE [7]: 1 (1=0-20%) | percentage damage to the plant, SOLNI (Solanum nigrum (SOLNI) [8]): 3 (3=41-60%) | percentage damage to the plant, SETFA (Setaria faberi (SETFA) [9]): 5 (5=81-100%) | percentage damage to the plant, LOLPE (Lolium perenne (LOLPE) [10]): 3 (3=41-60%) | percentage damage to the plant, ECHCG [11]: 3 (3=41-60%) | percentage damage to the plant, IPOHE [12]: 1 (1=0-20%)

— patent US12660819B2, “Herbicidal derivatives” (SYNGENTA CROP PROTECTION AG, priority 2020, dated 2026)
